In brackets after ≈: the same amount, converted by molar mass. Read-outs that look alike come from different tables or passages of the source.
Columns and labels:
[1] = system: Staphylococcus epidermidis 7586; settings: cited from earlier work
[2] = system: Micrococcus; settings: by Bryskier; cited from earlier work
[3] = system: S. pyogenes; settings: by Bryskier; cited from earlier work
[4] = system: Coagulase-negative Staphylococus sp., methicillin susceptible; assay: Standard microdilution susceptibility test, clinical isolates; format: cell-based
[5] = system: Coagulase-negative Staphylococus sp., methicillin resistant; assay: as above; format: cell-based
[6] = system: S. aureus ATCC 25923; settings: by Bryskier; cited from earlier work
[7] = system: Escherichia coli B 1218; settings: cited from earlier work
[8] = system: Micrococcus spp.; settings: cited from earlier work
[9] = system: Streptococcus simulans 7866; settings: cited from earlier work
[10] = system: Propionibacterium acnes; settings: by Bryskier; cited from earlier work
[11] = system: Streptococcus pneumoniae, penicillin resistant; assay: Standard microdilution susceptibility test, clinical isolates; format: cell-based; settings: for MIC50 / MIC90: Streptococcus pneumoniae
[12] = system: Streptococcus mitis; settings: by Bryskier; cited from earlier work
[13] = system: Propionibacterium acnes; settings: cited from earlier work
[14] = system: Enterobacter cloacae B 520; settings: cited from earlier work
[15] = system: Streptococcus pneumoniae, penicillin susceptible; assay: Standard microdilution susceptibility test, clinical isolates; format: cell-based; settings: for MIC50 / MIC90: Streptococcus pneumoniae
[16] = system: Coryneform(s); settings: by Bryskier; cited from earlier work
[17] = system: Staphylococcus capitis; settings: cited from earlier work
[18] = system: Bacillus subtilis ATCC 6633; settings: cited from earlier work
[19] = system: Enterobacter cloacae; settings: by Bryskier; cited from earlier work
[20] = system: B. subtilis ATCC 6633; settings: by Bryskier; cited from earlier work
[21] = system: S. aureus; settings: by Bryskier; cited from earlier work
[22] = system: Streptococcus mitis 5728; settings: cited from earlier work
[23] = system: Escherichia coli; settings: by Bryskier; cited from earlier work
[24] = system: Staphylococcus aureus ATCC 25923; settings: cited from earlier work
[25] = system: Streptococcus viridans sp.; assay: Standard microdilution susceptibility test, clinical isolates; format: cell-based; settings: for MIC50 / MIC90: Streptococcus viridans
[26] = system: Enterococcus sp., vancomycin susceptible; assay: as above; format: cell-based; settings: for MIC50 / MIC90: Enterococcus
[27] = system: Staphylococcus aureus 7503; settings: cited from earlier work
[28] = system: Serotype β Streptococcus 8252; settings: cited from earlier work
[29] = system: Staphylococcus saprophyticus 8454; settings: cited from earlier work
[30] = system: Diphteroides 8264; settings: cited from earlier work
[31] = system: Staphylococcus aureus, methicillin susceptible; assay: Standard microdilution susceptibility test, clinical isolates; format: cell-based; settings: for MIC50 / MIC90: Staphylococcus aureus
[32] = system: Staphylococcus epidermidis; settings: by Bryskier; cited from earlier work
[33] = system: Staphylococcus hominis 7835; settings: cited from earlier work
[34] = system: Staphylococcus aureus, methicillin resistant; assay: Standard microdilution susceptibility test, clinical isolates; format: cell-based; settings: for MIC50 / MIC90: Staphylococcus aureus
[35] = system: Enterococcus sp., decreased vancomycin susceptibility; assay: as above; format: cell-based; settings: 5 clinical isolates
[36] = system: E. casseliflavus; assay: Microdilution MIC, Enterococcus isolates with van resistance genes; format: cell-based; settings: Enterococcus casseliflavus
Method: Identification and characterization of resistance patterns of these bacteria were performed by standard methods.
When forming the test groups we attached great importance to the increasing incidence of drug-resistant microbes causing therapeutic problems. Most important of them are methicillin-resistant Staphylococcus aureus (MRSA), methicillin-resistant coagulase-negative Staphylococcus spp. (MRCoNS), penicillin-resistant Streptococcus pneumoniae (pneumococcus), vancomycin-resistant Enterococcus spp. (VRE). Pneumococcus isolates represented various serotypes, VRE isolates belonged to various species. Moreover, vancomycin-resistance of VRE isolates was based on different genetic backgrounds. Antibiotic-resistant strains were also represented among international reference strains, for example methicillin-resistant Staphylococcus aureus ATCC 43300 (MRSA), Staphylococcus aureus with decreased vancomycin susceptibility ATCC 700698 and 700699 (vancomycin intermediate Staphylococcus aureus—VISA), mupirocin-resistant Staphylococcus aureus ATCC BAA1708 and vancomycin-resistant Enterococcus faecalis ATCC 51299 (VRE).
Susceptibility tests were performed according to the standard microdilution method (NCCLS (CLSI) M7-A7).
The lowest concentration at which no bacterial growth was observed after the incubation period is the Minimal Inhibitory Concentration (MIC). The MIC value is inversely proportional to the antimicrobial efficacy. MIC values of antimicrobial agents can differ by species or even by bacterial strains within species.

[37] = 10 clinical isolates, read-out: MIC 50%
[38] = 10 clinical isolates, read-out: MIC 90%
[39] = 20 clinical isolates, read-out: MIC 50%
[40] = 20 clinical isolates, read-out: MIC 90%

CC[C@H]1OC(=O)[C@H](C)[C@@H](O[C@H]2C[C@@](C)(OC)[C@@H](O)[C@H](C)O2)[C@H](C)[C@@H](O[C@@H]2O[C@H](C)C[C@H](N(C)C)[C@H]2O)[C@](C)(O)C[C@@H](C)C(=O)[C@H](C)[C@@H](O)[C@]1(C)O [Erythromycin]
MIC [1]: <0.5 µg/mL
MIC [2]: <0.5 µg/mL
MIC [3]: 0.5 µg/mL (≈ 0.681 µM)
MIC50 [4, 37]: 0.125 µg/mL (≈ 0.17 µM)
MIC90 [4, 38]: > 16 µg/mL
MIC50 [5, 37]: 0.25 µg/mL (≈ 0.341 µM)
MIC90 [5, 38]: > 16 µg/mL
MIC [6]: 1.0 µg/mL (≈ 1.36 µM)
MIC [7]: 62.5 µg/mL (≈ 85.2 µM)
MIC [8]: <0.5 µg/mL
MIC [9]: 7.8 µg/mL (≈ 10.6 µM)
MIC [10]: <0.5 µg/mL
MIC50 [11, 37]: 2 µg/mL (≈ 2.73 µM)
MIC90 [11, 38]: > 16 µg/mL
MIC [12]: 250 µg/mL (≈ 341 µM)
MIC [13]: <0.5 µg/mL
MIC [14]: 250 µg/mL (≈ 341 µM)
MIC50 [15, 37]: 0.03 µg/mL (≈ 0.0409 µM)
MIC90 [15, 38]: 0.03 µg/mL (≈ 0.0409 µM)
MIC [16]: >250 µg/mL
MIC [17]: <0.5 µg/mL
MIC [18]: <0.5 µg/mL
MIC [19]: 250 µg/mL (≈ 341 µM)
MIC [20]: <0.5 µg/mL
MIC [21]: >250 µg/mL
MIC [22]: 250 µg/mL (≈ 341 µM)
MIC [23]: 62.5 µg/mL (≈ 85.2 µM)
MIC [24]: 1.0 µg/mL (≈ 1.36 µM)
MIC50 [25, 39]: 1 µg/mL (≈ 1.36 µM)
MIC90 [25, 40]: > 16 µg/mL
MIC50 [26, 39]: 1 µg/mL (≈ 1.36 µM)
MIC90 [26, 40]: > 16 µg/mL
MIC [27]: >250 µg/mL
MIC [28]: 0.5 µg/mL (≈ 0.681 µM)
MIC [29]: 1.0 µg/mL (≈ 1.36 µM)
MIC [30]: >250 µg/mL
MIC50 [31, 37]: 0.125 µg/mL (≈ 0.17 µM)
MIC90 [31, 38]: > 16 µg/mL
MIC [32]: <0.5 µg/mL
MIC [33]: 250 µg/mL (≈ 341 µM)
MIC50 [34, 37]: > 16 µg/mL
MIC90 [34, 38]: > 16 µg/mL

CC1(C)S[C@@H]2[C@H](NC(=O)[C@H](N)c3ccccc3)C(=O)N2[C@H]1C(=O)O [Ampicillin]
MIC [1]: <0.5 µg/mL
MIC [2]: <0.5 µg/mL
MIC [3]: <0.5 µg/mL
MIC [6]: <0.5 µg/mL
MIC [7]: 2.0 µg/mL (≈ 5.72 µM)
MIC [8]: <0.5 µg/mL
MIC [9]: <0.5 µg/mL
MIC [10]: 1.0 µg/mL (≈ 2.86 µM)
MIC [12]: 7.8 µg/mL (≈ 22.3 µM)
MIC [13]: 1.0 µg/mL (≈ 2.86 µM)
MIC [14]: 7.8 µg/mL (≈ 22.3 µM)
MIC [16]: 31.3 µg/mL (≈ 89.6 µM)
MIC [17]: <0.5 µg/mL
MIC [18]: <0.5 µg/mL
MIC [19]: 7.8 µg/mL (≈ 22.3 µM)
MIC [20]: <0.5 µg/mL
MIC [21]: <0.5 µg/mL
MIC [22]: 7.8 µg/mL (≈ 22.3 µM)
MIC [23]: 2.0 µg/mL (≈ 5.72 µM)
MIC [24]: <0.5 µg/mL
MIC [27]: <0.5 µg/mL
MIC [28]: <0.5 µg/mL
MIC [29]: <0.5 µg/mL
MIC [30]: 31.3 µg/mL (≈ 89.6 µM)
MIC [32]: <0.5 µg/mL
MIC [33]: <0.5 µg/mL

CN[C@H](CC(C)C)C(=O)N[C@H]1C(=O)N[C@@H](CC(N)=O)C(=O)N[C@H]2C(=O)N[C@H]3C(=O)N[C@H](C(=O)N[C@H](C(=O)O)c4cc(O)cc(O)c4-c4cc3ccc4O)[C@H](O)c3ccc(c(Cl)c3)Oc3cc2cc(c3O[C@@H]2O[C@H](CO)[C@@H](O)[C@H](O)[C@H]2O[C@H]2C[C@](C)(N)[C@H](O)[C@H](C)O2)Oc2ccc(cc2Cl)[C@H]1O [Vancomycin]
MIC50 [4]: 1 µg/mL (≈ 0.69 µM)
MIC90 [4]: 2 µg/mL (≈ 1.38 µM)
MIC Range ([4]; 10 clinical isolates): 1 to 2 µg/mL
Ratio of Sensitive/Total ([4]; 10 clinical isolates): 10/10
MIC50 [5]: 2 µg/mL (≈ 1.38 µM)
MIC90 [5]: 2 µg/mL (≈ 1.38 µM)
MIC Range ([5]; 10 clinical isolates): 1 to 2 µg/mL
Ratio of Sensitive/Total ([5]; 10 clinical isolates): 10/10
Ratio of Sensitive/Total [35]: 0/5
MIC ([36]; resistance gene van C1): 16 µg/mL (≈ 11 µM)
MIC ([36]; resistance gene van C2): 8 µg/mL (≈ 5.52 µM)
MIC Range ([11]; 10 clinical isolates): 0.25 to 0.5 µg/mL
Ratio of Sensitive/Total ([11]; 10 clinical isolates): 10/10
MIC50 [11]: 0.5 µg/mL (≈ 0.345 µM)
MIC90 [11]: 0.5 µg/mL (≈ 0.345 µM)
MIC Range ([15]; 10 clinical isolates): 0.25 to 0.5 µg/mL
Ratio of Sensitive/Total ([15]; 10 clinical isolates): 10/10
MIC50 [15]: 0.5 µg/mL (≈ 0.345 µM)
MIC90 [15]: 0.5 µg/mL (≈ 0.345 µM)
MIC Range ([25]; 20 clinical isolates): 0.5 to 1 µg/mL
Ratio of Sensitive/Total ([25]; 20 clinical isolates): 10/20
MIC50 [25]: 0.5 µg/mL (≈ 0.345 µM)
MIC90 [25]: 1 µg/mL (≈ 0.69 µM)
MIC Range ([26]; 20 clinical isolates): 1 to 4 µg/mL
Ratio of Sensitive/Total ([26]; 20 clinical isolates): 20/20
MIC50 [26]: 1 µg/mL (≈ 0.69 µM)
MIC90 [26]: 2 µg/mL (≈ 1.38 µM)
MIC Range ([31]; 10 clinical isolates): 0.5 to 2 µg/mL
Ratio of Sensitive/Total ([31]; 10 clinical isolates): 10/10
MIC50 [31]: 1 µg/mL (≈ 0.69 µM)
MIC90 [31]: 1 µg/mL (≈ 0.69 µM)
MIC Range ([34]; 10 clinical isolates): 0.5 to 1 µg/mL
Ratio of Sensitive/Total ([34]; 10 clinical isolates): 10/10
MIC50 [34]: 1 µg/mL (≈ 0.69 µM)
MIC90 [34]: 1 µg/mL (≈ 0.69 µM)

Reference: patent publication US20140303105A1, “Primycin and components thereof for use in the treatment or prevention of infections caused by specific pathogens” (PANNONPHARMA GYÓGYSZERGYÁRTÓ ZRT., priority 2011, published 2014)
